Structures can show the parent of a compound that is named as a salt.
Columns and labels:
[1] = system: spontaneously beating right atria of the guinea pig; assay: effect on spontaneously beating right atria of the guinea pig (β-stimulant effect on cardiac muscle); type: cell-based; conditions: Cavia porcellus, in vitro, read-out: ED25, dose which produces 25% of the maximum possible increase in atrial contraction rate
Method: (§1) The compounds of this invention are β-adrenergic stimulants which have direct bronchodilator activity with minimal cardiac stimulation. This selective β-stimulant activity is determined by two standard in vitro pharmacological test systems: (1) effect on spontaneous tone of guinea pig tracheal chain preparation as a measure of β-stimulant (direct relaxant) effect on airway smooth muscle, and (2) effect on spontaneously beating right atria of the guinea pig as a measure of β-stimulant effect on cardiac muscle. Compounds that show selective bronchodilating properties, as the compounds of this invention do, are active in test (1) at a dose lower than is required in test (2) thereby resulting in a positive separation ratio. Results of test (1) are reported as the dose which produces 50% of the maximum possible relaxation (ED50). Test (2) results are reported as the dose which produces 25% of the maximum possible increase in atrial contraction rate (ED25).

[2] = system: guinea pig tracheal chain preparation; assay: effect on spontaneous tone of guinea pig tracheal chain preparation (β-stimulant direct relaxant effect on airway smooth muscle); type: cell-based; conditions: Cavia porcellus, in vitro, read-out: ED50, dose which produces 50% of the maximum possible relaxation
Method: as §1

Row | EC50 [2] [µg/mL] | Compound | EC25 [1] [µg/mL]
1 | 0.14 | CS(=O)(=O)Cc1cc(C(O)C2CCCCN2)ccc1O (stereo not drawn) [α-(4-hydroxy-3-methanesulfonylmethylphenyl)-2-piperidylcarbinol hydrobromide] | 1.1
2 | 0.83 | NC(=O)Nc1cc(C(O)C2CCCCN2)ccc1O (stereo not drawn) [α-(4-hydroxy-3-ureidophenyl)-2-piperidylcarbinol hydrochloride] | 9.4

Row | Compound | EC50 [2] [µg/mL] | EC25 [1] [µg/mL]
3 | Nc1cc(C(O)C2CCCCN2)ccc1O (stereo not drawn) [α-(3-amino-4-hydroxyphenyl)-2-piperidylcarbinol hydrobromide] | 0.12 | 4.4
